Experiment [1] relates to E. coli wild-type strain JM83 (gene expression). The experiment in a line: Primer extension analysis of mRNA levels in DHCP-treated vs control cells. The settings on record: DHCP 250 μM, 8 h. It is filed as cell-based. As to the method: FIG. 1 are gels showing the effect of DHCP on the levels of mRNAs. Total RNA was extracted by the hot phenol method as described in the Materials and Methods section of Example 1, and primer extension analysis was carried out with oligonucleotides corresponding to osmY, dps, rpoS, katG, cysK, tehA, zipA, and ompF. Lanes 1 and 2 in each case represent mRNAs isolated from control (untreated) and DHCP treated cells, respectively.
E. coli wild-type strain JM83 [F^− araΔ(lac-proAB) rpsL(str^r)] (Yanisch-Perron et al., 1985) was grown in Luria broth (LB). V. harveyi strains BB152 and BB170 were a gift from Dr. Bonnie Bassler (Princeton University). These strains were grown in AB medium as described previously (Surette et al., 1999).
E. coli cells grown overnight in LB medium were diluted into fresh LB medium. After the growth reached a Klett unit of 50, DHCP was added (250 μM) and growth was further monitored. After growth reached a Klett unit of 90-100, it was diluted 10-fold into a medium containing the same concentration of DHCP as described previously (Phadtare et al., 2001). The cells were harvested after a total of 8 h of incubation with DHCP. […] The total RNA was extracted by the hot phenol method described previously (Sarmientos et al., 1983). It was further purified by RNeasy Minikit (Qiagen) and was then treated with DNase I followed by phenol-chloroform treatment and ethanol precipitation. It was quantified by measuring absorbance at 260 nm. The purity of RNA was confirmed by agarose gel electrophoresis.
The primers used for detection of the respective mRNAs were: Primer 750077, 5′-[…]-3′ (SEQ ID NO:1), that corresponds to the sequence from the 15th to the 8th codon of osmY (Yim et al., 1992); primer 750078, 5′-[…]-3′ (SEQ ID NO:2), that corresponds to the sequence from the 16th to the 9th codon of dps (Altuvia et al., 1994); Primer 979747, 5′-[…]-3′ (SEQ ID NO:3), that corresponds to the region from the 6th codon of rpoS (Takayanagi et al., 1994); primer 956660, 5′-AGT […]-3′ (SEQ ID NO:4), that corresponds to the region from 13th to the 6th codon of katG (Triggs-Raine et al., 1998); primer 3969805, 5′-[…]-3′ (SEQ ID NO:5), that corresponds to the region from 20th to the 13th codon of cysK (Byrne et al., 1988); primer 3969806, 5′-[…]-3′ (SEQ ID NO:6), that corresponds to the region from 13th to the 6th codoh of tehA (Walter et al., 1991); primer 3969807, 5′[…]-3′ (SEQ ID NO:7), that corresponds to the region from 10th to the 3rd codon of zipA (Hale et al., 1997); and primer 7018 5′-[…]-3′ (SEQ ID NO:8), that includes the region encompassing from the first codon of ompF (accession numbers, J01655, M10311 and M10312). The primers were labeled with [γ-^32P] ATP (Du-Pont-New England Nuclear] by using T4 polynucleotide kinase (Gibco BRL). Primer extension was carried out with 5 μg of RNA at 42° C. for 1 h in a final reaction volume of 10 μl, with 50 mM Tris-HCl (pH 8.5), 8 mM MgCl2, 30 mM KCl, 1 mM dithiothreitol, 0.4 pmol of ^32P-labeled primer, 0.5 mM each of the dNTPs, 10 U RNase inhibitor (Boehringer Mannheim) and 6.25 U of reverse transcriptase (Boehringer Mannheim). The products were analyzed on a 6% polyacrylamide gel under denaturing conditions. Quantitation of primer extension products was carried out by direct radioactive measurements.

Experiment [2] concerns AI-2 activity, V. harveyi reporter strain BB170. The experiment in a line: AI-2 assay (luminescence of reporter strain). Type of experiment: cell-based. On the procedure:
FIGS. 2A and 2B are graphs showing DHCP inhibits AI-2 activity. The AI-2 activity assay was carried out as described in Materials and Methods section of Example 1. The luminescence seen with V. harveyi BB152 was assumed as 100% and the other activities were expressed as relative %. In FIG. 2A, the lanes are as follows: Sterile AB medium, lane 1; V. harveyi BB152 culture fluid, lane 2; DHCP (250 μM), lane 3; DHCP (250 μM) plus V. harveyi BB152 culture fluid, lane 4. In FIG. 2B, DHCP was added to the reaction mixtures after maximum luminescence was generated by AI-2, at a concentration of 250 μM (closed circles) and 100 μM (open squares). The corresponding control activity of AI-2 without DHCP addition is also shown (open triangles). The light production was monitored at various time points with a liquid scintillation counter.
The AI-2 assays using V. harveyi reporter strain (BB170) were carried out as described by Surette and Bassler (Surette et al., 1999). Cell-free culture fluid from V. harveyi BB152 strain was used as a positive control. Sterile AB medium was used a negative control. Briefly, the V. harveyi BB170 strain was grown overnight with aeration at 30° C. in the AB medium and the cells were then diluted 1:5000 in the fresh medium. The diluted culture (90 μl) was added in the assay mixture containing 10 μl of AB medium or cell-free culture fluid of V. harveyi BB152/DHCP (100-250 μM). To check the effect of DHCP on the light production by AI-2, it was added to the reaction mixture after the maximum luminescence was achieved. The light production was monitored with a liquid scintillation counter.
In the present study, the AI-2 assay designed by Suretter and Bassler (Surette et al., 1999) was used. The V. harveyi BB170 reporter strain has the quorum-sensing phenotype, sensor 1^−, sensor 2^+. It induces lux expression through the signaling system 2 detector. Addition of 10% cell-free culture fluid prepared from V. harveyi BB152 strain (containing the system 2 autoinducer) stimulates luminescence expression in the reporter strain. […] The laboratory of the present inventors examined if DHCP inhibits the activity of AI-2. […] Sterile AB medium was used as a negative control (lane 1). […] It has been reported that the AI-2 gave maximum luminescence at approximately 10 μM concentration (Schauder et al., 2001). It should be noted that the DHCP concentration used in the present assay was in excess of the AI-2 concentration. It was also tested if DHCP can inhibit AI-2 activity when it is added after maximum luminescence is generated by AI-2. […] When it was added at the concentration of 100 μM (open squares), the AI-2 activity was reduced to zero after 40 min. The corresponding control activity without DHCP addition (open triangles) was completely stable.

Consider `O=C1C=CC(O)C1O` (stereo not drawn) [DHCP, 4,5-dihydroxy-2-cyclopenten-1-one], for which the “Primer extension: ratio of mRNA level DHCP-treated to control” value in experiment [1] (gene cysK) is given as 18.00; in experiment [1] (gene dps) it was 12.00; in experiment [1] (gene katG), 9.00; in experiment [1] (gene ompF), 0.06; in experiment [1] (gene osmY), 15.00; in experiment [1] (gene rpoS), 4.00. Further, the “Primer extension: ratio of mRNA level DHCP-treated to control” value in experiment [1] (gene tehA) and in experiment [1] (gene zipA) was 5.00 each time. For the same molecule, the “Time until AI-2 activity was reduced to zero” value in experiment [2] (DHCP 100 μM added after maximum luminescence generated by AI-2, FIG. 2B) is recorded as 40 min; in experiment [2] (DHCP 250 μM added after maximum luminescence generated by AI-2, FIG. 2B) it was ≤ 8 min. The “Inhibition of AI-2 activity” value in experiment [2] (DHCP 250 μM added immediately before AI-2 containing cell-free extract of V. harveyi BB152, FIG. 2A lane 4) is “completely inhibited”. Also, in experiment [2] (DHCP 250 μM alone, FIG. 2A lane 3), the “AI-2 activity (luminescence) of DHCP itself” value is “did not show AI-2 activity”.

For the origin of these results see US20060035317A1, “Effect of treatment with 4,5-dihydroxy-2-cyclopenten-1-one (dhcp) on gene expression and quorum-sensing in bacteria” (priority 2002, published 2006).
